From PubChem BioAssay (NCI)
Values after ≈ are worked out from the molar mass of the structure shown. Values joined by “and” are separate entries in the source; they are usually repeats but may differ in a detail not shown here. Identical values can stand only once.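 Five compound concentrations were applied to cells in 96-well plates for 48 hours; endpoints were derived by simple linear interpolation of the resulting dose-response curve. Abbreviation: GI50, concentration required for 50% inhibition of growth. At the TGI there is no net growth.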 Active and inactive are the calls of the source. Rule as the data show it: active = GI50 below about 0.43 µM; inactive = the rest.

What was measured:
Assay in all cases: NCI tumour cell line growth inhibition, 48 h
DMS 114 small cell lung = system: DMS 114 small cell lung
KM20L2 colon = system: KM20L2 colon
LXFL 529 NSCLC = system: LXFL 529 NSCLC
SNB-78 CNS = system: SNB-78 CNS
RXF-631 renal = system: RXF-631 renal
P388 leukemia = system: P388 leukemia
P388/ADR leukemia = system: P388/ADR leukemia
SN12K1 renal = system: SN12K1 renal

Row | SMILES | TGI (DMS 114 small cell lung) | TGI (KM20L2 colon) | TGI (LXFL 529 NSCLC) | TGI (SNB-78 CNS) | further results
1 | O=C(CSc1nnc(-c2ccc(N=Cc3ccc(Cl)cc3)cc2)o1)Nc1cccc(Cl)c1 | > 100 µM | > 100 µM | > 100 µM | > 100 µM | –
2 | COc1cc2c(cc1O)C(C)Cc1cc3c(cc1N(C)CC2)OCO3 (centres undefined) | > 21.9 µM | 26.9 µM | > 95.6 µM | 42.3 µM | TGI (RXF-631 renal): > 59 µM
3 | Cn1c(=O)c2nc(N3CCCCC3)cnc2n(C)c1=O | – | > 100 µM | > 100 µM | – | –
4 | CC(C)(O)[C@H](CCO)O[Si](c1ccccc1)(c1ccccc1)C(C)(C)C | – | 23.9 µM | 23.8 µM | 29.8 µM | –
5 | COc1cc2c(cc1OC)C(Cc1c3ccccc3cc3ccccc13)N(C)CC2 (centres undefined) | – | 40.5 µM | – | > 73.1 µM | TGI (P388 leukemia): 47.6 µM; TGI (P388/ADR leukemia): 35 µM; TGI (SN12K1 renal): 30.3 µM
6 | CCNCCCCNCC | > 3750 µM | > 3750 µM | – | > 3750 µM | TGI (P388 leukemia): > 3750 µM; TGI (P388/ADR leukemia): > 3750 µM; TGI (SN12K1 renal): > 3750 µM
7 | COC(=O)NN1C(=O)C(=P(c2ccccc2)(c2ccccc2)c2ccccc2)C(C(=O)OC)=C1C | > 100 µM | > 100 µM | > 100 µM | > 100 µM | TGI (RXF-631 renal): > 100 µM
8 | O=c1[nH]c(=O)n(C2CC(O)C(CO)O2)cc1C#Cc1cc(F)cc(F)c1 (centres undefined) | > 100 µM | – | > 100 µM | > 100 µM | TGI (RXF-631 renal): > 100 µM
9 | CC[C@]12C=CCN3CCC4(c5cc([C@@]6(C(=O)OC)CC7CN(CCc8c6[nH]c6ccccc86)C[C@@H]6CCC[C@H]76)c(OC)cc5N(C)C4[C@](O)(C(=O)OC)C1OC(C)=O)C32 (some centres undefined) | 1.01 µM | 0.209 µM | > 10 µM | > 2.85 µM | –
10 | O=C(O)CNS(=O)(=O)c1ccc(NC(=O)Nc2ccccc2)cc1 | > 100 µM | > 100 µM | – | > 100 µM | TGI (P388 leukemia): > 100 µM; TGI (P388/ADR leukemia): > 100 µM; TGI (SN12K1 renal): > 100 µM
11 | C/C(=N/N)c1ccc2[nH]c3c(C)cc([N+](=O)[O-])c(C)c3c2c1 | 25.8 µM | – | – | – | –
12 | O=C(c1ccccc1)c1c(CNCc2ccccc2)n(C(=O)c2ccccc2)c2ccccc12 | > 100 µM | > 100 µM | > 100 µM | – | –
13 | Nc1ccc(N)c2c1C(=O)c1c(N)ccc(N)c1C2=O | > 100 µM | > 100 µM | – | > 100 µM | –
14 | NC(N)=Nc1nc2ccccc2[nH]1 | 68 µg/mL | – | – | > 150 µg/mL | GI50 (DMS 114 small cell lung): 10.5 µg/mL; outcome (KM20L2 colon): inactive; GI50 (P388 leukemia): 4.46 µg/mL (≈ 25.4 µM); TGI (P388 leukemia): 20.5 µg/mL; GI50 (P388/ADR leukemia): 6.34 µg/mL (≈ 36.2 µM); TGI (P388/ADR leukemia): 41.5 µg/mL; GI50 (SN12K1 renal): 37.6 µg/mL (≈ 215 µM); TGI (SN12K1 renal): > 150 µg/mL; GI50 (SNB-78 CNS): 150 µg/mL
15 | CC1=C2C(O)C(C(C)C(=O)NC(C)C)CCC2(C)C=CC1=O (centres undefined) | > 100 µM | > 100 µM | – | > 100 µM | TGI (P388 leukemia): > 100 µM; TGI (P388/ADR leukemia): > 100 µM; TGI (SN12K1 renal): > 100 µM
16 | O=C(Nc1c(Cl)cc([N+](=O)[O-])cc1Cl)/C(=N\Nc1cccc(Cl)c1)c1c(O)c2ccccc2oc1=O | > 100 µM | > 100 µM | – | – | TGI (RXF-631 renal): > 100 µM
17 | COc1cc([C@@H]2c3cc4c(c(O)c3C[C@H]3COC(=O)[C@@H]32)OCO4)cc(OC)c1O | 0.00546 µM | 0.0279 µM and 0.059 µM | 0.00859 µM | > 200 µM | GI50 (DMS 114 small cell lung): 2.31 nM; GI50 (KM20L2 colon): 10.5 nM and 33.2 nM; TGI (P388 leukemia): 1.9 µM; TGI (P388/ADR leukemia): 0.992 µM; GI50 (SNB-78 CNS): 3.09 nM
18 | COc1cc(C=O)c(-c2cc3c(cc2C=O)OCO3)c(OC)c1OC | > 290 µM | 147 µM | > 290 µM | – | TGI (RXF-631 renal): > 290 µM
19 | Cc1cc(NCCCCCCNc2cc(C)nc3ccc(Cl)cc23)c2cc(Cl)ccc2n1 | 36 µM | 32.4 µM | > 100 µM | 56.8 µM | TGI (RXF-631 renal): > 100 µM
20 | S=C(Nc1ccccc1)N1N=C2c3ccccc3CC[C@H]2[C@@H]1c1ccccc1 | > 100 µM | > 100 µM | > 100 µM | > 100 µM | –
21 | N#Cc1c2nc3ccccc3nc2n2ccc3ccccc3c12 | > 100 µM | – | > 100 µM | > 100 µM | –
22 | CC(=O)NC(CCCCNC(=O)N(C)N=O)C(=O)NCc1ccccc1 (centres undefined) | > 100 µM | > 100 µM | > 100 µM | > 100 µM | TGI (RXF-631 renal): > 100 µM
23 | Cc1cc(-c2ccccc2)cc2[n+]1CC=C2 | > 100 µM | > 100 µM | > 100 µM | > 100 µM | –
24 | COc1ccc([C@@H]2CC(=O)NCCCCNCCCN2)cc1 | > 100 µM | > 100 µM | > 100 µM | > 100 µM | –
